Read-outs that look alike come from different tables or passages of the source.
Key:
[1] = target: PRMT5/MEP50 complex (Homo sapiens (Human), UniProt O14744); assay: PRMT5:MEP50 FlashPlate Assay; type: biochemical
Experimental: The PRMT5 inhibitory activity of compounds of the present invention was determined using a PRMT5:MEP50 FlashPlate Assay (Reaction Biology Corporation).
The assay uses purified human, PRMT5 enzyme to convert S-adenosyl-L-[methyl-^3H]methionine plus histone H4 L-arginine to S-adenosyl-L-homocysteine plus histone H4 [methyl-^3H]-L-arginine. The assay was carried out using Streptavidin-coated FlashPlates (Perkin Elmer), which contained a scintillant embedded in the plastic of the plate. The histone H4 peptide substrate was conjugated with biotin, which binds to the streptavidin-coated well of the plate, placing the H4 peptide in close proximity to the side well and the scintillant. The transfer of the tritiated methyl group from S-adenosyl-L-[methyl-^3H]methionine to the bound histone H4 peptide generated a radiolabeled histone H4, which was quantitated by measuring in a scintillation counter to determine the activity of PRMT5 enzyme in the presence and absence of compound. […] Briefly, compounds of the present invention were solubilized in 100% DMSO at a highest concentration of 10 mM. For IC, determinations, the initial starting concentration for the serial dilutions of each compound was 50 μM. Control samples lacking compound, PRMT5/MEP50 complex or various reaction components also were prepared and processed in parallel with compound test samples. SAH was used as a positive control for assay validation. To measure PRMT5 inhibitory activity, 3 nM PRMT5/MEP50 complex (Reaction Biology Corporation) was preincubated with test compound in assay buffer containing 40 nM histone H4 peptide (amino acids 1-15)-Biotin conjugate for 20 min at room temperature. The enzymatic reaction was initiated by adding 1 μM tritiated S-adenosyl methionine (final concentration) and the reaction is allowed to proceed for 20 min. The reaction was stopped and the amount of bound, tritiated H4 peptide in each sample was determined using a scintillation counter. The IC50 value for each compound was calculated from each 10-point dose-response curve for samples plus and minus MTA using GraphPad Prism software and the results for exemplary compounds of Formula (I) is shown in Table 9a.

[2] = target: PRMT5•MTA (biotinylated PRMT5-MEP50) (Homo sapiens (Human), UniProt O14744); assay: SPR binding assay, MTA running buffer; details: 20 μM MTA running buffer
Experimental: (§1) SPR screening was performed in MTA running buffer (25 mM Bicine pH 7.6, 100 mM NaCl, 1 mM TCEP, 20 μM MTA, 0.05% Tween-20 and 2% DMSO). The biotinylated PRMT5-MEP50 surface was equilibrated with MTA running buffer for 12 hours prior to the start. […] Subsequently, compound titration was repeated in SAM-running buffer (25 mM Bicine pH 7.6, 100 mM NaCl, 1 mM TCEP, 20 μM SAM, 0.05% Tween-20, and 2% DMSO). […] After double referencing, the steady-state response was extracted for each fragment concentration and was fit to the Langmuir isotherm equation to determine the equilibrium dissociation constant (KD).

[3] = target: recombinant human dual expressed Avi PRMT5/His-MEP50 protein (Homo sapiens (Human), UniProt O14744); assay: HTRF binding assay in presence of MTA; details: 30 μM MTA
Experimental: The PRMT5 binding activity of compounds of the present invention was determined using an HTRF binding assay or SPR assay.
A recombinant human dual expressed Avi PRMT5/His-MEP50) protein (corresponding to amino acids for PRMT5 2-637, and 2-342 for MEP50 expressed in baculovirus) was incubated with target fragments in final buffer (25 mM ADA pH 7.2, 30 μM MTA, 1 mM TCEP, 50 mM NaCl, 0.002% Tween, 5 nM proprietary Tracer binding compound prepared in-house), overnight at 2-8° C. After overnight incubation the binding is monitored after the addition of 0.5 nM Anti-His-Tb (Cisbio) after 1 hr incubation at RT (˜20-24 hrs total binding time). The HTRF signal was measured using a Clariostar reader (BMG) excitation filter (Ex Tr), dichroic filter (LP TP) and emission filters (F 665-10 and F 620-10) manufacturer's instructions. The HTRF ratio was calculated using the formula: [emission 665/emission 620]*10000.

[4] = target: PRMT5•SAM (biotinylated PRMT5-MEP50) (Homo sapiens (Human), UniProt O14744); assay: SPR binding assay, SAM running buffer; details: 20 μM SAM running buffer
Experimental: as §1

[5] = histone H4 peptide, absence of MTA, read-out: IC50
[6] = read-out: IC50 + 2 μM MTA, histone H4 peptide, presence of 2 μM MTA
[7] = IC50 + 2 μM MTA, histone H4 peptide, presence of 2 μM MTA

Chain of PRMT5•MTA (biotinylated PRMT5-MEP50) (O14744 whole entry, the tested form may be a part): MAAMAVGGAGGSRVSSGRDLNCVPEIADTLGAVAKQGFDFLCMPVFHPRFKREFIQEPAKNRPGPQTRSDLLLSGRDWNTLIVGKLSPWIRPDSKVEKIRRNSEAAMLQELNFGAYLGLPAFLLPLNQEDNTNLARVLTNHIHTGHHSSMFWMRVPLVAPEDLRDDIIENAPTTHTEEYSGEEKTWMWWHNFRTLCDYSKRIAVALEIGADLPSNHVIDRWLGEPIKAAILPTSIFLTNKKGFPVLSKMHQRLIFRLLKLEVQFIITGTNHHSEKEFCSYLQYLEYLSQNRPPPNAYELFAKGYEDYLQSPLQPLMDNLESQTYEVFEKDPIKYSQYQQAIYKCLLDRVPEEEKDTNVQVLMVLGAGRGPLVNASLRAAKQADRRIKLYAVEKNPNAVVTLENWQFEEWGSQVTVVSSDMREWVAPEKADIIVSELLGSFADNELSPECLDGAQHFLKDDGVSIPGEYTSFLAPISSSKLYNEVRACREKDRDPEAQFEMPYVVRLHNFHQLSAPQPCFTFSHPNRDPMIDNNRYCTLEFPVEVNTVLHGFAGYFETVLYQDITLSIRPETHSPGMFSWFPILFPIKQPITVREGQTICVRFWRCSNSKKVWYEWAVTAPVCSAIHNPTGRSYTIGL
Chain of PRMT5•MTA (biotinylated PRMT5-MEP50) (Q9BQA1 whole entry partner, the tested form may be a part): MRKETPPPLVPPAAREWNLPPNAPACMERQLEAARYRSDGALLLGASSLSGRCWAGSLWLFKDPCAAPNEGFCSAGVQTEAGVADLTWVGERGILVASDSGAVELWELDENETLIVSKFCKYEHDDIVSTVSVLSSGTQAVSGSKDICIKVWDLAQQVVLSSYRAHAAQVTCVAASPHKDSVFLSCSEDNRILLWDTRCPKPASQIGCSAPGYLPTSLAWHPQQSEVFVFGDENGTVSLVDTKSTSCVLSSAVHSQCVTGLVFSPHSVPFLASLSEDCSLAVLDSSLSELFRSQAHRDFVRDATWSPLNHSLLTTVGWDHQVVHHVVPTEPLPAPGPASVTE
Chain of PRMT5/MEP50 complex (O14744 whole entry): as the sequence (O14744 whole entry, the tested form may be a part) above
Chain of PRMT5/MEP50 complex (Q9BQA1 whole entry partner): as the sequence (Q9BQA1 whole entry partner, the tested form may be a part) above
Chain of PRMT5•SAM (biotinylated PRMT5-MEP50) (O14744 whole entry): as the sequence (O14744 whole entry, the tested form may be a part) above
Chain of PRMT5•SAM (biotinylated PRMT5-MEP50) (Q9BQA1 whole entry partner): as the sequence (Q9BQA1 whole entry partner, the tested form may be a part) above
Chain of recombinant human dual expressed Avi PRMT5/His-MEP50 protein (O14744 2-637): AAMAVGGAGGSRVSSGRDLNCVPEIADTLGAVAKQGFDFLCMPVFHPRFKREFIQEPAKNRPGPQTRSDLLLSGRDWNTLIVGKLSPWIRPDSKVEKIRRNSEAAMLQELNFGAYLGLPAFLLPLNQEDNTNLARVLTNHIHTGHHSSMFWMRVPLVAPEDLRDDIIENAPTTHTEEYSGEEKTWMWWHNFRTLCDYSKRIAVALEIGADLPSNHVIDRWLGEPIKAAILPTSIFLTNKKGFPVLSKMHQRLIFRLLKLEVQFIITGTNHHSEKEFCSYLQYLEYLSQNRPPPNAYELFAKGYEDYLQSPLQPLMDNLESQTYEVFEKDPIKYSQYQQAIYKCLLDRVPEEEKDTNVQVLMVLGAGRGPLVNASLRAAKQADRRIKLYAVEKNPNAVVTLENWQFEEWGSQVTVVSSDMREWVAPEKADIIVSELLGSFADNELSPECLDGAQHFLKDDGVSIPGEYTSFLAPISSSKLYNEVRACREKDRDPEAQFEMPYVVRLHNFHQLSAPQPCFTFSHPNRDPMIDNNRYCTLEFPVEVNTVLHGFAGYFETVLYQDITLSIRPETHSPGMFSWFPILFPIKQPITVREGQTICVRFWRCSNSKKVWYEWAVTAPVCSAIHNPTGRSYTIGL
Chain of recombinant human dual expressed Avi PRMT5/His-MEP50 protein (Q9BQA1 2-342 partner): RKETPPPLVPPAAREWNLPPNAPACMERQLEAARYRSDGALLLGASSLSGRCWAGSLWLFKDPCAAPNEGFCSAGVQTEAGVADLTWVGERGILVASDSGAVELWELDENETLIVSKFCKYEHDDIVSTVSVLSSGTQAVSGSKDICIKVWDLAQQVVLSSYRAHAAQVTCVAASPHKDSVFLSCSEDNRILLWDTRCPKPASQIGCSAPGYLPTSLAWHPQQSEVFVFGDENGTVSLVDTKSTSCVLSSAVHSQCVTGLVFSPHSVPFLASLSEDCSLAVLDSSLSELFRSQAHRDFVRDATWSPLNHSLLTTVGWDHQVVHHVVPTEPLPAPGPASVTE

Compound | IC50 [1, 5] | IC50 [1, 6] | Kd [2] | IC50 [3] | Kd [4] | IC50 [1, 7]
Cc1cc(N)nc2cc(-c3cnsc3)cnc12 [Example 1-8, 7-(isothiazol-4-yl)-4-methyl-1,5-naphthyridin-2-amine] | > 300000 nM | > 300000 nM | 7500 nM | 11400 nM | 19100 nM | 
CC(=O)NCc1cc2nc(N)c(C)cc2[nH]1 [Example 14-3, N-((5-amino-6-methyl-1H-pyrrolo[3,2-b]pyridin-2-yl)methyl)acetamide] | 271000 nM | 138 nM | 12 nM | 102 nM | 38 nM | 
Cc1cc2[nH]ccc2nc1N [Example 9-1, 6-methyl-1H-pyrrolo[3,2-b]pyridin-5-amine] | 188000 nM | 27900 nM | 456 nM | 2200 nM | 3360 nM | 
Cc1cc2[nH]c(C(C#N)N3C(=O)c4ccccc4C3=O)cc2nc1N (stereo not shown) [Example 14-5, 2-(5-amino-6-methyl-1H-pyrrolo[3,2-b]pyridin-2-yl)-2-(1,3-dioxoisoindolin-2-yl)acetonitrile] | 245000 nM | 4260 nM | 203 nM | 37 nM | 727 nM | 
Cc1cc(N)nc2cc(CNC(=O)c3ccccc3)cnc12 [Example 7-1, N-[(6-amino-8-methyl-1,5-naphthyridin-3-yl)methyl]benzamide] | 62600 nM | 5570 nM | 94 nM | 158 nM | 396 nM | 
CC(=O)N(C)Cc1cc2nc(N)c(C)cc2[nH]1 [Example 14-4, N-((5-amino-6-methyl-1H-pyrrolo[3,2-b]pyridin-2-yl)methyl)-N-methylacetamide] | 170000 nM | 1240 nM | 17 nM | 124 nM | 80 nM | 
Cc1cc(N)nc2cc(CNC(=O)c3ccccc3)cnc12 [Example 8-1, N-[(6-amino-8-methyl-1,5-naphthyridin-3-yl)methyl]benzamide] | 4290 nM | 419 nM | 5 nM | 9 nM | 33 nM | 
Cc1cc(N)nc2cc(CNC(=O)c3ccncn3)cnc12 [Example 7-2, N-[(6-amino-8-methyl-1,5-naphthyridin-3-yl)methyl]pyrimidine-4-carboxamide] | > 100000 nM | 22000 nM | 151 nM | 313 nM | 2220 nM | 
Cc1cc(N)nc2ccc(-c3ccccc3F)nc12 [Example 4-7, 6-(2-fluorophenyl)-4-methyl-1,5-naphthyridin-2-amine] | > 300000 nM | > 300000 nM | 32000 nM | 10100 nM | 81400 nM | 
Cc1cc2[nH]c(-n3cncn3)cc2nc1N [Example 13-1, 6-methyl-2-(1,2,4-triazol-1-yl)-1H-pyrrolo[3,2-b]pyridin-5-amine] | > 300000 nM | 176000 nM | 510 nM | 1280 nM | 1180 nM | 
Cc1cc(N)nc2cc(Cc3cccnc3)cnc12 [Example 2-7, 4-methyl-7-(3-pyridylmethyl)-1,5-naphthyridin-2-amine] |  |  | 232 nM | 581 nM | 1220 nM | 
Cc1cc(N)nc2cc(Oc3cccnc3)cnc12 [Example 3-7, 4-methyl-7-(3-pyridyloxy)-1,5-paphthyridin-2-amine] | 351000 nM | 26100 nM | 2460 nM | 546 nM |  | 
Nc1nc2cc(NC(=O)c3ccccc3)[nH]c2cc1Br [Example 12-1, N-(5-amino-6-bromo-1H-pyrrolo [3,2-b]pyridin-2-yl)benzamide] | > 100000 nM | > 100000 nM | 2540 nM | 1410 nM | 6290 nM | 
Cc1cc(N)nc2cc(CN3C(=O)c4ccccc4C3=O)cnc12 [Example 7-6, 2-[(6-amino-8-methyl-1,5-naphthyridin-3-yl)methyl]isoindoline-1,3-dione] | > 300000 nM | 745 nM | 12 nM | 21 nM | 105 nM | 
Cc1cc2[nH]c(-n3cnc(Br)c3)cc2nc1N [Example 13-3, 2-(4-bromoimidazol-1-yl)-6-methyl-1H-pyrrolo[3,2-b]pyridin-5-amine] | > 300000 nM |  | 680 nM | 2360 nM | 2010 nM | 131000 nM
CC(=O)N(C)Cc1cc2nc(N)c(C)cc2n1C(C)=O [Example 15-8, N-((1-acetyl-5-amino-6-methyl-1H-pyrrolo[3,2-b]pyridin-2-yl)methyl)-N-methylacetamide] |  |  | 43 nM | 1010 nM | 341 nM | 
Cc1cc(N)nc2cc(Cc3ccccc3F)cnc12 [Example 2-2, 7-(2-fluorobenzyl)-4-methyl-1,5-naphthyridin-2-amine] |  |  | 5280 nM | 354 nM | 39100 nM | 
Nc1nc2cc[nH]c2cc1C1CC1 [Example 9-2, 6-cyclopropyl-1H-pyrrolo[3,2-b]pyridin-5-amine] | 232000 nM | 97800 nM | 3260 nM | 24700 nM | 19600 nM | 
Nc1nc2cc(NC(=O)c3ccccc3F)[nH]c2cc1Br [Example 12-4, N-(5-amino-6-bromo-1H-pyrrolo[3,2-b]pyridin-2-yl)-2-fluoro-benzamide] | 100000 nM | 48900 nM | 1890 nM | 1620 nM | 4950 nM | 
Cc1cc2[nH]c(N3CC(=O)N(C)C3=O)cc2nc1N [Example 13-4, 1-(5-amino-6-methyl-1H-pyrrolo[3,2-b]pyridin-2-yl)-3-methyl-imidazolidine-2,4-dione] | > 300000 nM | > 300000 nM | 10700 nM | 50600 nM | 30900 nM | 
CC(=O)c1c(CNC(=O)c2ccccc2)[nH]c2cc(C)c(N)nc12 [Example 15-5, N-((3-acetyl-5-amino-6-methyl-1H-pyrrolo[3,2-b]pyridin-2-yl)methyl)benzamide] |  |  | 774000 nM | ≥ 100000 nM | 631000 nM | 
Cc1cc2c(cc(CNC(=O)c3ccccc3)n2C2CC2)nc1N [Example 15-1, N-[(5-amino-1-cyclopropyl-6-methyl-pyrrolo[3,2-b]pyridin-2-yl)methyl]benzamide] | > 300000 nM | 44900 nM | 66 nM | 362 nM |  | 
Cc1cc(N)nc2cc(C(C#N)N3C(=O)c4ccccc4C3=O)cnc12 (stereo not shown) [Example 7-7, 2-(6-amino-8-methyl-1,5-naphthyridin-3-yl)-2-(1,3-dioxoisoindolin-2-yl)acetonitrile] | > 300000 nM | 2390 nM |  | 24 nM |  | 
Cn1ncc(N2CCc3cc(F)c(N)nc3C2)c1-c1ccccc1C#N [Example 11-4, 2-(4-(2-amino-3-fluoro-5,6-dihydro-1,7-naphthyridin-7(8H)-yl)-1-methyl-1H-pyrazol-5-yl)benzonitrile] | > 300000 nM | 79800 nM |  | 1430 nM |  | 
Cc1cc2[nH]c(N3CCNC3=O)cc2nc1N [Example 13-6, 1-(5-amino-6-methyl-1H-pyrrolo[3,2-b]pyridin-2-yl)imidazolidin-2-one] | 60300 nM |  |  | 6690 nM |  | 183000 nM
